Results as given in ChEMBL document CHEMBL1201862, “PubChem BioAssay data set” (2004).
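Briefly, cells in 96-well plates were exposed to five compound concentrations for 48 h, and endpoints were estimated by linear interpolation. At the GI50, growth is halved.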 The source made the active and inactive calls. No stated cut-off is given here; in the data, active = GI50 up to about 1.1 µM and inactive = higher.

Legend:
Experiment in all cases: DTP human tumour cell line panel, 48 h
IGROV-1 = system: IGROV-1
DU-145 = system: DU-145
UO-31 = system: UO-31
OVCAR-5 = system: OVCAR-5
A498 = system: A498
SN12C = system: SN12C
SK-MEL-5 = system: SK-MEL-5
KM12 = system: KM12
T47D = system: T47D
786-0 = system: 786-0
Hs-578T = system: Hs-578T
OVCAR-3 = system: OVCAR-3
TK-10 = system: TK-10
RPMI-8226 = system: RPMI-8226
SK-MEL-2 = system: SK-MEL-2
UACC-257 = system: UACC-257
HT-29 = system: HT-29
UACC-62 = system: UACC-62
U-251 = system: U-251
SF-539 = system: SF-539

Measured: GI50

CC(C)Cn1cnc2c(SCc3ccccn3)nc(N)nc21
inactive: IGROV-1 > 100 µM | DU-145 > 100 µM | UO-31 > 100 µM | OVCAR-5 > 100 µM | A498 > 100 µM | SN12C > 100 µM | SK-MEL-5 > 100 µM | KM12 > 100 µM | T47D 80.7 µM | 786-0 > 100 µM | Hs-578T > 100 µM | OVCAR-3 > 100 µM | TK-10 > 100 µM | RPMI-8226 > 100 µM | SK-MEL-2 > 100 µM | UACC-257 > 100 µM | HT-29 > 100 µM | UACC-62 > 100 µM | U-251 > 100 µM

Cc1ccc(S(=O)(=O)NC(=O)NC(CC(N)=O)C(=O)O)cc1 (stereo unspecified)
inactive: IGROV-1 > 100 µM | DU-145 > 100 µM | UO-31 > 100 µM | SF-539 > 100 µM | OVCAR-5 > 100 µM | SN12C > 100 µM | SK-MEL-5 > 100 µM | KM12 > 100 µM | T47D > 100 µM | 786-0 > 100 µM | Hs-578T > 100 µM | TK-10 > 100 µM | RPMI-8226 > 100 µM | SK-MEL-2 > 100 µM | UACC-257 > 100 µM | HT-29 > 100 µM | UACC-62 > 100 µM | U-251 > 100 µM

O=C1/C(=C/c2cccc([N+](=O)[O-])c2)N=C(c2ccccc2)N1c1ccc2c(c1)Sc1cc(N3C(=O)/C(=C/c4cccc([N+](=O)[O-])c4)N=C3c3ccccc3)ccc1N2
inactive: IGROV-1 20.1 µM | DU-145 36.7 µM | UO-31 53.3 µM | OVCAR-5 18.5 µM | A498 23.6 µM | SK-MEL-5 17.3 µM | KM12 > 100 µM | T47D 25.4 µM | 786-0 21 µM | Hs-578T 30.2 µM | OVCAR-3 12.6 µM | TK-10 19.6 µM | RPMI-8226 26.7 µM | SK-MEL-2 20 µM | UACC-257 18.4 µM | HT-29 91.8 µM | UACC-62 17 µM | U-251 24.7 µM

O=P(O)(O)OC1O[C@H](CO)[C@H](O)[C@H](O)[C@H]1O (stereo partly specified)
inactive: IGROV-1 > 100 µM | DU-145 > 100 µM | UO-31 > 100 µM | OVCAR-5 > 100 µM | A498 > 100 µM | SN12C > 100 µM | SK-MEL-5 > 100 µM | KM12 > 100 µM | T47D > 100 µM | 786-0 > 100 µM | Hs-578T > 100 µM | OVCAR-3 > 100 µM | TK-10 > 100 µM | RPMI-8226 > 100 µM | SK-MEL-2 > 100 µM | UACC-257 > 100 µM | HT-29 > 100 µM | UACC-62 > 100 µM | U-251 > 100 µM

Cc1cc(C(=O)CBr)c(CN2C(=O)c3ccccc3C2=O)c(=O)n1C
inactive: IGROV-1 26.9 µM | DU-145 13.7 µM | UO-31 18.4 µM | SF-539 16.2 µM | OVCAR-5 24.9 µM | SN12C 17.6 µM | KM12 19.5 µM | T47D 25.5 µM | 786-0 21.8 µM | Hs-578T 15.2 µM | OVCAR-3 17.2 µM | TK-10 7.43 µM | SK-MEL-2 27 µM | UACC-257 17 µM | HT-29 14.2 µM | UACC-62 16.6 µM | U-251 12.7 µM

Cn1c2c(c3ccccc31)CC1c3c(c4ccccc4n3C)CC21 (stereo unspecified)
inactive: IGROV-1 > 100 µM | DU-145 > 100 µM | UO-31 > 100 µM | SF-539 > 100 µM | OVCAR-5 > 100 µM | SN12C > 100 µM | SK-MEL-5 > 100 µM | KM12 > 100 µM | T47D > 100 µM | 786-0 > 100 µM | Hs-578T > 100 µM | OVCAR-3 > 100 µM | TK-10 > 100 µM | RPMI-8226 > 100 µM | UACC-257 > 100 µM | HT-29 > 100 µM | UACC-62 > 100 µM | U-251 > 100 µM

COc1cc(C(c2ccc3c(c2)OCO3)C2SCCCS2)cc(OC)c1OC (stereo unspecified)
inactive: IGROV-1 2.49 µM | DU-145 3.03 µM | UO-31 6.22 µM | OVCAR-5 4.81 µM | A498 1.9 µM | SN12C 2.51 µM | SK-MEL-5 3.34 µM | KM12 3.09 µM | T47D 3.56 µM | 786-0 2.74 µM | Hs-578T 2.33 µM | OVCAR-3 3.14 µM | TK-10 5.2 µM | RPMI-8226 3.27 µM | SK-MEL-2 77.4 µM | UACC-257 6.08 µM | HT-29 1.89 µM | UACC-62 2.75 µM | U-251 3.01 µM

COc1cc(/C=C/c2ccc(OC)c(OC)c2)cc(OC)c1 [(E)-3,4,3',5'-TETRAMETHOXYSTILBENE]
inactive: IGROV-1 46.9 µM | DU-145 45.2 µM | UO-31 19.1 µM | SF-539 41.3 µM | OVCAR-5 39.8 µM | SN12C 31.3 µM | SK-MEL-5 19 µM | KM12 15.5 µM | T47D 23.6 µM | 786-0 20.7 µM | Hs-578T 25.8 µM | OVCAR-3 23.7 µM | TK-10 56.1 µM | RPMI-8226 83.4 µM | SK-MEL-2 32 µM | UACC-257 46.3 µM | HT-29 19.3 µM | UACC-62 19.8 µM | U-251 24.7 µM

COC(=O)C(Cc1ccccc1)OC(=O)C(N)CC(=O)O (stereo unspecified)
inactive: IGROV-1 > 100 µM | DU-145 > 100 µM | UO-31 > 100 µM | SF-539 > 100 µM | OVCAR-5 > 100 µM | SN12C > 100 µM | SK-MEL-5 > 100 µM | T47D > 100 µM | 786-0 > 100 µM | Hs-578T > 100 µM | OVCAR-3 > 100 µM | TK-10 > 100 µM | RPMI-8226 > 100 µM | SK-MEL-2 > 100 µM | UACC-257 32.4 µM | HT-29 > 100 µM | UACC-62 > 100 µM

CSCCCNC(=O)c1csc(-c2csc(CCN)n2)n1
inactive: IGROV-1 53.6 µM | DU-145 > 100 µM | UO-31 38.6 µM | SF-539 > 100 µM | OVCAR-5 49.4 µM | SN12C 68.1 µM | SK-MEL-5 93.1 µM | KM12 > 100 µM | T47D 74.1 µM | 786-0 > 100 µM | Hs-578T 56.8 µM | OVCAR-3 > 100 µM | TK-10 > 100 µM | RPMI-8226 44.7 µM | UACC-257 > 100 µM | HT-29 82.8 µM | UACC-62 > 100 µM | U-251 > 100 µM

CC(=O)O[C@@]12[C@@H]3O[C@@]4(O)C[C@]5(C)[C@H]6C[C@@](C(C)C)(O[C@H]5c5ccoc5)O[C@H]1[C@]6(C4)O[C@]2(O)C(C)=CC3(C)C
inactive: IGROV-1 > 100 µM | DU-145 > 100 µM | UO-31 > 100 µM | SF-539 > 100 µM | OVCAR-5 > 100 µM | SN12C > 100 µM | SK-MEL-5 > 100 µM | KM12 > 100 µM | T47D > 100 µM | 786-0 64.4 µM | Hs-578T > 100 µM | OVCAR-3 > 100 µM | TK-10 > 100 µM | RPMI-8226 > 100 µM | SK-MEL-2 > 100 µM | UACC-257 > 100 µM | HT-29 > 100 µM | UACC-62 > 100 µM | U-251 > 100 µM
